Assay results from patent US11673889B2, “Substituted imidazo[4,5-c][1,8]naphthyridines as phosphodiesterase inhibitors” (Nanjing Zhengxiang Pharmaceuticals Co., Ltd., priority 2019, dated 2023).
pIC50: −log10 of the molar value.

Legend:
[1] = target: T1, human soluble ENPP1 (Homo sapiens, UniProt P22413); experiment: ENPP1 activity assay using p-Nitrophenyl-5′-TMP as a substrate; format: biochemical
T1 construct: 20 ng of human soluble ENPP1
T1 sequence (P22413 103-925 limits assumed): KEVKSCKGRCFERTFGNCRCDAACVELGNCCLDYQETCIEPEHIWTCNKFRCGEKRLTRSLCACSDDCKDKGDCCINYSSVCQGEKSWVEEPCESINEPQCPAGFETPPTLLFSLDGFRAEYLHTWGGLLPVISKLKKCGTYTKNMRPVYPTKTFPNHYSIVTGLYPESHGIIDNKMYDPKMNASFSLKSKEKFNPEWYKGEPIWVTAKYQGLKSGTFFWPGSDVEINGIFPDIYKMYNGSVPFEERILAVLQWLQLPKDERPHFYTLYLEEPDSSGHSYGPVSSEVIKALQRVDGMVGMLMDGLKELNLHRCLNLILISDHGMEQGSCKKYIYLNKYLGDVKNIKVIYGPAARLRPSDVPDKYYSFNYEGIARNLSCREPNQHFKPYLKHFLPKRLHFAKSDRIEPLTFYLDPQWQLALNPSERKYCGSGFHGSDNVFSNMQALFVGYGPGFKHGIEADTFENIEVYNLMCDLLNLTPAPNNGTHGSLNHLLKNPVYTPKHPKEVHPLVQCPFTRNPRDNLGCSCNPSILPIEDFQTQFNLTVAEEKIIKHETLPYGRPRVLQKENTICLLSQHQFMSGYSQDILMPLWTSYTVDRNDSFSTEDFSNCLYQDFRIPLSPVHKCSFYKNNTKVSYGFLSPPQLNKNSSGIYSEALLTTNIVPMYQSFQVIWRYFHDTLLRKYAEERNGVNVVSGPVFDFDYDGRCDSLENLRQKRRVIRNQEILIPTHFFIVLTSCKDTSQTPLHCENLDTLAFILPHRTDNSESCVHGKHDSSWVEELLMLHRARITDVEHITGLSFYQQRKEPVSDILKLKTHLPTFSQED
In short: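 Percent inhibition, set against uninhibited-enzyme and blank wells, was fitted to a four-parameter variable-slope model for IC50. Chromogenic read-out was p-nitrophenol released from TMP-pNP, added as a 2 mM […] solution for 1 h at RT. Before that, 20 ng soluble ENPP1 sat 30 min with compound.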

[2] = target: T1, human soluble ENPP1; experiment: ENPP1 activity assay using p-Nitrophenyl-5′-AMP as a substrate; format: biochemical
In short: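 Absorbance at 405 nm tracks p-nitrophenol from AMP-pNP hydrolysis after 1 h at room temperature, substrate added as 3 mM (2× final) following 30 min enzyme–compound preincubation. Enzyme: 35 ng human soluble ENPP1. IC50 fitted (variable-slope four-parameter) from percent inhibition normalized to max and blank.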

[3] = Pharmacokinetics in mice; format: in vivo; details: mouse, plasma, male CD-1 mice, 1 mg/kg, iv; for Vd: read-out: Vdss
Method: A dosing solution of test sample was prepared at 1.0 mg/mL in 5% DMSO/40% PEG400/55% water and administered to male CD-1 mice (4-6 weeks old, 20-30 grams, 3 animals each group) via intravenous (IV) bolus at 1 mg/kg and by oral gavage (PO) at 5 mg/kg. Blood samples (˜0.03 mL each time point) were collected via the jugular vein into tubes containing sodium heparin as the anticoagulant at 0.033, 0.083, 0.25, 0.5, 1, 2, 4, 8 and 24 hours post dose for IV administration and 0.083, 0.25, 0.5, 1, 2, 4, 8 and 24 hours post dose for PO administration. The blood samples were then centrifuged for 5 minutes in a centrifuge refrigerated at 4° C. The resultant plasma samples were analyzed using LC/MS/MS to determine concentrations of test sample. Non-compartmental model with WinNonlin (Phoenix™, version 8.0) software was used to calculate pharmacokinetic (PK) parameters.

[4] = target: T2, ENPP-1, MDA-MB-231 cells (Homo sapiens, UniProt P22413); experiment: cell-based; details: for inhibition at 20 µM: MDA-MB-231, read-out: % Inhibition (at 20 μM)
T2 sequence (P22413 1-925): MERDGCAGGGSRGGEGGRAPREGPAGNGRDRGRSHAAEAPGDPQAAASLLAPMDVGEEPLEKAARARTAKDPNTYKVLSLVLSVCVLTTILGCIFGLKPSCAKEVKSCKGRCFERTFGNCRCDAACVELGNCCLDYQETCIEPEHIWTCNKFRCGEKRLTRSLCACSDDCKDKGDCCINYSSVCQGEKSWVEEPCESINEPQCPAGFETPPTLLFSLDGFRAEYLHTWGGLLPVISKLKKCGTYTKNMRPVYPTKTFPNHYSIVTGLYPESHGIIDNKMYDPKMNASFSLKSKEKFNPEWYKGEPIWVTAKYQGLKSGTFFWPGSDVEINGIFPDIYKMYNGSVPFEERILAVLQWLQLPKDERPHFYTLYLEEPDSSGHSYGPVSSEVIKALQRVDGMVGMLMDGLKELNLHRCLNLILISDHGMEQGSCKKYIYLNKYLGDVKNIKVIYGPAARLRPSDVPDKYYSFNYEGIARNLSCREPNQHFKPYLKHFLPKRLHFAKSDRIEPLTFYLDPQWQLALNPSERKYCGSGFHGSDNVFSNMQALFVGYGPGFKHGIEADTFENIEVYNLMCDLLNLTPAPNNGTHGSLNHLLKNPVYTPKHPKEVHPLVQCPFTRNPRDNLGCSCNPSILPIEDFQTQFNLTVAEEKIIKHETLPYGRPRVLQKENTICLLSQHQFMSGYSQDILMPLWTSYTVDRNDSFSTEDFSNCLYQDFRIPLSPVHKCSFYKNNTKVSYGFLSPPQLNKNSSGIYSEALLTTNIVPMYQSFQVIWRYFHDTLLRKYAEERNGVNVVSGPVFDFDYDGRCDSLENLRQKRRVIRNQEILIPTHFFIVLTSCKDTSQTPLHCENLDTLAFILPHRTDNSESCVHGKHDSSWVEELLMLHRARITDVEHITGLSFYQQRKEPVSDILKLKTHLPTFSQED

| SMILES | pIC50 [1] | pIC50 [2] | AUC [3] | clearance [3] | half-life [3] | Vd [3] | pIC50 [4] | inhibition at 20 µM [4] |
| --- | --- | --- | --- | --- | --- | --- | --- | --- |
| COc1ccc2c(ncc3[nH]c(=O)n(Cc4ccc(S(N)(=O)=O)cc4)c32)n1 [Compound 38, 4-((7-methoxy-2-oxo-2,3-dihydro-1H-imidazo[4,5-c][1,8]naphthyridin-1-yl)methyl)benzenesulfonamide] | 9.51 | 9.12 | 370 ng·h/mL | 45 mL/min/kg | 1.9 h | 3.3 L/kg |  |  |
| COc1ccc2c(ncc3ncn(CC4CN(S(N)(=O)=O)C4)c32)n1 [Compound 52, 3-((7-methoxy-1H-imidazo[4,5-c][1,8]naphthyridin-1-yl)methyl)azetidine-1-sulfonamide] | 9.27 | 8.66 | 179 ng·h/mL | 103 mL/min/kg | 0.35 h | 1.1 L/kg | 5.89 | 79% |
| COc1ccc2c(ncc3ncn([C@H](C)c4ccc(S(N)(=O)=O)cn4)c32)n1 [Compound 60, (R)-6-(1-(7-methoxy-1H-imidazo[4,5-c][1,8]naphthyridin-1-yl)ethyl)pyridine-3-sulfonamide] | 9.51 | 8.82 | 215 ng·h/mL | 78 mL/min/kg | 2.5 h | 11 L/kg | 6.31 | 83% |
| COc1ccc2c(ncc3ncn(Cc4ccc(S(N)(=O)=O)c(F)c4)c32)n1 [Compound 61, 2-fluoro-4-((7-methoxy-1H-imidazo[4,5-c][1,8]naphthyridin-1-yl)methyl)benzenesulfonamide] | 9.28 | 8.72 | 271 ng·h/mL | 62 mL/min/kg | 1.4 h | 4.5 L/kg | 6.11 | 80% |
| COc1ccc2c(ncc3ncn(Cc4ccc(S(N)(=O)=O)cc4F)c32)n1 [Compound 62, 3-fluoro-4-((7-methoxy-1H-imidazo[4,5-c][1,8]naphthyridin-1-yl)methyl)benzenesulfonamide] | 10.00 | 8.82 | 163 ng·h/mL | 105 mL/min/kg | 4.9 h | 39 L/kg | 7.35 | 89% |
| COc1ccc2c(ncc3ncn(Cc4ccc(S(N)(=O)=O)c(C(F)(F)F)c4)c32)n1 [Compound 65, 4-((7-methoxy-1H-imidazo[4,5-c][1,8]naphthyridin-1-yl)methyl)-2-(trifluoromethyl)benzenesulfonamide] | 8.52 | 8.06 | 185 ng·h/mL | 92 mL/min/kg | 0.72 h | 3.1 L/kg | 5.80 | 75% |
| COc1ccc2c(ncc3nc(C)n(Cc4cc(F)c(S(N)(=O)=O)cc4F)c32)n1 [Compound 70, 2,5-difluoro-4-((7-methoxy-2-methyl-1H-imidazo[4,5-c][1,8]naphthyridin-1-yl)methyl)benzenesulfonamide] | 9.19 | 8.92 | 668 ng·h/mL | 26 mL/min/kg | 2.6 h | 4.3 L/kg | 6.54 | 85% |
| COc1ccc2c(ncc3nc(C)n(Cc4ccc(S(N)(=O)=O)c(F)c4)c32)n1 [Compound 71, 2-fluoro-4-((7-methoxy-2-methyl-1H-imidazo[4,5-c][1,8]naphthyridin-1-yl)methyl)benzenesulfonamide] | 9.00 | 8.54 | 288 ng·h/mL | 60 mL/min/kg | 0.74 h | 2.8 L/kg | 5.96 | 76% |
| COc1ccc2c(ncc3nc(C)n(Cc4ccc(S(N)(=O)=O)cn4)c32)n1 [Compound 72, 6-((7-methoxy-2-methyl-1H-imidazo[4,5-c][1,8]naphthyridin-1-yl)methyl)pyridine-3-sulfonamide] | 9.24 | 8.92 | 303 ng·h/mL | 56 mL/min/kg | 1.4 h | 2.9 L/kg | 6.47 | 81% |
| COc1ccc2c(ncc3nc(C)n(Cc4ccc(S(N)(=O)=O)nc4)c32)n1 [Compound 73, 5-((7-methoxy-2-methyl-1H-imidazo[4,5-c][1,8]naphthyridin-1-yl)methyl)pyridine-2-sulfonamide] | 9.44 | 9.02 | 267 ng·h/mL | 63 mL/min/kg | 0.6 h | 1.6 L/kg | 6.57 | 81% |
| COc1ccc2c(ncc3nc(C4CC4)n(Cc4ccc(S(N)(=O)=O)cn4)c32)n1 [Compound 74, 6-((2-cyclopropyl-7-methoxy-1H-imidazo[4,5-c][1,8]naphthyridin-1-yl)methyl)pyridine-3-sulfonamide] | 10.05 | 9.92 | 138 ng·h/mL | 123 mL/min/kg | 1.4 h | 14 L/kg | 7.07 | 81% |
| COc1ccc2c(ncc3nc(CN4CCOCC4)n(Cc4ccc(S(N)(=O)=O)c(F)c4)c32)n1 [Compound 80, 2-fluoro-4-((7-methoxy-2-(morpholinomethyl)-1H-imidazo[4,5-c][1,8]naphthyridin-1-yl)methyl)benzenesulfonamide] | 8.74 | 8.19 | 158 ng·h/mL | 107 mL/min/kg | 0.13 h | 1 L/kg | 5.74 | 75% |
| COc1ccc2c(ncc3nc(CC#N)n(Cc4ccc(S(N)(=O)=O)c(F)c4)c32)n1 [Compound 82, 4-((2-(cyanomethyl)-7-methoxy-1H-imidazo[4,5-c][1,8]naphthyridin-1-yl)methyl)-2-fluorobenzenesulfonamide] | 9.10 | 8.62 | 253 ng·h/mL | 66 mL/min/kg | 0.86 h | 2.2 L/kg | 6.25 | 82% |
